Measurements as given in patent US12377175B2, “Trifunctional constructs with tunable pharmacokinetics useful in imaging and anti-tumor therapies” (Cornell University, priority 2016, dated 2025).

Test system: LNCaP xenograft tumor-bearing mice
Assay: Biodistribution studies of 177Lu-labeled ligands in LNCaP xenograft mice
Assay type: in vivo, mouse
Conditions: for Max. Tumor Uptake: corresponding 177Lu-labeled compound, 4 h p.i. (a)
Protocol: Inoculation of mice with xenografts: All animal studies were approved by the Institutional Animal Care and Use Committee of Weill Cornell Medicine and were undertaken in accordance with the guidelines set forth by the USPHS Policy on Humane Care and Use of Laboratory Animals. Animals were housed under standard conditions in approved facilities with 12 h light/dark cycles. Food and water was provided ad libitum throughout the course of the studies. Hairless male nu/nu mice were purchased from the Jackson Laboratory. For inoculation in mice, LNCaP cells were suspended at 4×10^7 cells/mL in a 1:1 mixture of PBS:Matrigel (BD Biosciences). Each mouse was injected in the left flank with 0.25 mL of the cell suspension. The mice were imaged when the tumors reached approximately 200-400 mm^3, while biodistributions were conducted when tumors were in the range 100-400 mm^3.
Biodistribution studies of 177Lu-labeled ligands in LNCaP xenograft mice: LNCaP xenograft tumor-bearing mice (5 per time point per compound) were injected intravenously with a bolus injection of 348-851 kBq (9.4-23 μCi) and 37-50 ng ([…]) of each ligand. The mice were sacrificed at 4, 24 and 96 h post injection. A blood sample was removed, and a full biodistribution study was conducted on the following organs (with contents): heart, lungs, liver, small intestine, large intestine, stomach, spleen, pancreas, kidneys, muscle, bone and tumor. Tissues were weighed and counted on a 2470 Wizard^2 Automatic Gamma Counter (Perkin Elmer). Counts were corrected for decay and for activity injected, and tissue uptake was expressed as percent injected dose per gram (% ID/g). Standard error measurement was calculated for each data point.

Row | blood activity (comparison within the series) (4 h p.i.) | SMILES | Max. Tumor Uptake [% ID/g]
1 | – | O=C(O)CC[C@H](NC(=O)N[C@@H](CCCCNC(=O)Nc1cccc(-c2cn(CCOCCOCCOCCOCCOCCOCCOCCOCCC(=O)N[C@@H](CCCCNC(=S)Nc3ccc(CC4CN(CC(=O)O)CCN(CC(=O)O)CCN(CC(=O)O)CCN4CC(=O)O)cc3)C(=O)N[C@@H](CCCCNC(=O)Cc3ccc(I)cc3)C(=O)O)nn2)c1)C(=O)O)C(=O)O (stereo partly drawn) [RPS-066, (((1S)-1-carboxy-5-(3-(3-(1-((29S,32S)-32-carboxy-39-(4-iodophenyl)-27,30,38-trioxo-29-(4-(3-(4-((1,4,7,10-tetrakis(carboxymethyl)-1,4,7,10-tetraazacyclododecan-2-yl)methyl)phenyl)thioureido)butyl)-3,6,9,12,15,18,21,24-octaoxa-28,31,37-triazanonatriacontyl)-1H-1,2,3-triazol-4-yl)phenyl)ureido)pentyl)carbamoyl)-L-glutamic acid] | 18.7 ± 1.1
2 | highest blood activity | O=C(O)CCC(NC(=O)NC(CCCCNC(=O)Nc1cccc(-c2cnnn2CC(=O)NC(CCCCNC(=S)Nc2ccc(CC3CN(CC(=O)O)CCN(CC(=O)O)CCN(CC(=O)O)CCN3CC(=O)O)cc2)C(=O)NC(CCCCNC(=O)Cc2ccc(I)cc2)C(=O)O)c1)C(=O)O)C(=O)O (centres unmarked) [177Lu-RPS-068, metal not drawn] | –
3 | – | O=C(O)CC[C@H](NC(=O)N[C@@H](CCCCNC(=O)Nc1cccc(-c2cn(CCOCCOCCOCCOCCC(=O)N[C@@H](CCCCNC(=S)Nc3ccc(CC4CN(CC(=O)O)CCN(CC(=O)O)CCN(CC(=O)O)CCN4CC(=O)O)cc3)C(=O)N[C@@H](CCCCNC(=O)Cc3ccc(I)cc3)C(=O)O)nn2)c1)C(=O)O)C(=O)O (stereo partly drawn) [RPS-061, (((1S)-1-carboxy-5-(3-(3-(1-((17S,20S)-20-carboxy-27-(4-iodophenyl)-15,18,26-trioxo-17-(4-(3-(4-((1,4,7,10-tetrakis(carboxymethyl)-1,4,7,10-tetraazacyclododecan-2-yl)methyl)phenyl)thioureido)butyl)-3,6,9,12-tetraoxa-16,19,25-triazaheptacosyl)-1H-1,2,3-triazol-4-yl)phenyl)ureido)pentyl)carbamoyl)-L-glutamic acid] | 20.4 ± 3.1
4 | – | O=C(O)CC[C@H](NC(=O)N[C@@H](CCCCNC(=O)Nc1cccc(-c2cn(CCOCCOCCOCCOCCOCCOCCC(=O)N[C@@H](CCCCNC(=S)Nc3ccc(CC4CN(CC(=O)O)CCN(CC(=O)O)CCN(CC(=O)O)CCN4CC(=O)O)cc3)C(=O)N[C@@H](CCCCNC(=O)Cc3ccc(I)cc3)C(=O)O)nn2)c1)C(=O)O)C(=O)O (stereo partly drawn) [RPS-069, (((1S)-1-carboxy-5-(3-(3-(1-((23S,26S)-26-carboxy-33-(4-iodophenyl)-21,24,32-trioxo-23-(4-(3-(4-((1,4,7,10-tetrakis(carboxymethyl)-1,4,7,10-tetraazacyclododecan-2-yl)methyl)phenyl)thioureido)butyl)-3,6,9,12,15,18-hexaoxa-22,25,31-triazatritriacontyl)-1H-1,2,3-triazol-4-yl)phenyl)ureido)pentyl)carbamoyl)-L-glutamic acid] | 17.0 ± 2.1
5 | – | O=C(O)CC[C@H](NC(=O)N[C@@H](CCCCNC(=O)Nc1cccc(-c2cn(CCOCCOCCOCCC(=O)N[C@@H](CCCCNC(=S)Nc3ccc(CC4CN(CC(=O)O)CCN(CC(=O)O)CCN(CC(=O)O)CCN4CC(=O)O)cc3)C(=O)N[C@@H](CCCCNC(=O)Cc3ccc(I)cc3)C(=O)O)nn2)c1)C(=O)O)C(=O)O (stereo partly drawn) [RPS-063, (((1S)-1-carboxy-5-(3-(3-(1-((14S,17S)-17-carboxy-24-(4-iodophenyl)-12,15,23-trioxo-14-(4-(3-(4-((1,4,7,10-tetrakis(carboxymethyl)-1,4,7,10-tetraazacyclododecan-2-yl)methyl)phenyl)thioureido)butyl)-3,6,9-trioxa-13,16,22-triazatetracosyl)-1H-1,2,3-triazol-4-yl)phenyl)ureido)pentyl)carbamoyl)-L-glutamic acid] | 30.0 ± 6.9
